Measurements reported in patent US8163771B2, “11 β-HSD1 modulators” (Exelixis, Inc., priority 2008, dated 2012).

Biological target: T1, recombinant human 11 β-HSD1 (Homo sapiens, UniProt P28845)
T1 construct: made in house; host or cells: E. coli
Experiment: 11 β-HSD1 SPA Assay (Scintillation Proximity Assay)
Type: biochemical
Outline: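 Scintillation proximity read-out of cortisol formed from 40 nM [3H]cortisone by purified recombinant human enzyme (30-100 nM, E. coli) with 1 mM NADPH, pH7.4, 2 hours at room temperature; beads with cortisol antibody and glycyrrhetinic acid stop the reaction, read next day. IC50 derived from inhibition normalised to background and maximal wells.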

T1 sequence (P28845 whole entry): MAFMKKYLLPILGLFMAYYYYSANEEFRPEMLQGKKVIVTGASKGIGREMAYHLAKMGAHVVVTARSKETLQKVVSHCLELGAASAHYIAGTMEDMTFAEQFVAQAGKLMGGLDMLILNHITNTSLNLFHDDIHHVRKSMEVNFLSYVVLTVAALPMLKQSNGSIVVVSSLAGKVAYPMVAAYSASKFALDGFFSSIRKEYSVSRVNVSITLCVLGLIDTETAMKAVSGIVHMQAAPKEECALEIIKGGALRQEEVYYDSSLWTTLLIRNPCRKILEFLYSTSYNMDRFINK

Compound	IC50
COCCOc1cc(OC(C)(C)C(=O)N[C@H]2C[C@H]3CC[C@@H](C2)N3c2ccc(C(=O)NCC(F)(F)F)cn2)c(Cl)cc1Cl [Example 382, 6-[3-endo-({2-[2,4-dichloro-5-(2-methoxyethoxy)phenoxy]-2-methylpropanoyl}amino)-8-azabicyclo[3.2.1]oct-8-yl]-N-(2,2,2-trifluoroethyl)pyridine-3-carboxamide]	< 200 nM
CC(C)(Oc1ccc(Cl)cc1CCO)C(=O)N[C@H]1C[C@H]2CC[C@@H](C1)N2c1ccc(C(=O)NCC(F)(F)F)cn1 [Example 383, 6-[3-endo-({2-[4-chloro-2-(2-hydroxyethyl)phenoxy]-2-methylpropanoyl}amino)-8-azabicyclo[3.2.1]oct-8-yl]-N-(2,2,2-trifluoroethyl)pyridine-3-carboxamide]	< 200 nM
CC(C)(Oc1ccc(Cl)cc1Cl)C(=O)N[C@H]1C[C@H]2CC[C@@H](C1)N2c1ccc(C(=O)NC2(CO)CC2)cn1 [Example 384, 6-(3-endo-{[2-(2,4-dichlorophenoxy)-2-methylpropanoyl]amino}-8-azabicyclo[3.2.1]oct-8-yl)-N-[1-(hydroxymethyl)cyclopropyl] pyridine-3-carboxamide]	< 200 nM
CC(C)(Oc1cccc2[nH]ncc12)C(=O)N[C@H]1C[C@H]2CC[C@@H](C1)N2c1ccc(C(=O)NCC(F)(F)F)cn1 [Example 385, 6-(3-endo-{[2-(1H-indazol-4-yloxy)-2-methylpropanoyl]amino}-8-azabicyclo[3.2.1]oct-8-yl)-N-(2,2,2-trifluoroethyl)pyridine-3-carboxamide]	< 200 nM
CC(C)(Oc1ccc(Cl)cc1Cl)C(=O)N[C@H]1C[C@H]2CC[C@@H](C1)N2c1ccc(C(=O)Nc2ccon2)cn1 [Example 386, 6-(3-endo-{[2-(2,4-dichlorophenoxy)-2-methylpropanoyl]amino}-8-azabicyclo[3.2.1]oct-8-yl)-N-(isoxazol-3-yl)pyridine-3-carboxamide]	< 200 nM
CC(C)(Oc1ccc(Cl)cc1OCCn1ccnc1)C(=O)N[C@H]1C[C@H]2CC[C@@H](C1)N2c1ccc(C(=O)NCC(F)(F)F)cn1 [Example 387, 6-{3-endo-[(2-{4-chloro-2-[2-(1H-imidazol-1-yl)ethoxy]phenoxy}-2-methylpropanoyl)amino]-8-azabicyclo[3.2.1]oct-8-yl}-N-(2,2,2-trifluoroethyl)pyridine-3-carboxamide]	< 2000 nM
CC(C)(Oc1ccc(Cl)cc1S(N)(=O)=O)C(=O)N[C@H]1C[C@H]2CC[C@@H](C1)N2c1ccc(C(=O)NCC(F)(F)F)cn1 [Example 388, 6-(3-endo-{[2-(4-chloro-2-sulfamoylphenoxy)-2-methylpropanoyl]amino}-8-azabicyclo[3.2.1]oct-8-yl)-N-(2,2,2-trifluoroethyl)pyridine-3-carboxamide]	< 2000 nM
CC(C)(Oc1ccc(Cl)cc1OCCO)C(=O)N[C@H]1C[C@H]2CC[C@@H](C1)N2c1ccc(C(=O)NCC(F)(F)F)cn1 [Example 389, 6-[3-endo-({2-[4-chloro-2-(2-hydroxyethoxy)phenoxy]-2-methylpropanoyl}amino)-8-azabicyclo[3.2.1]oct-8-yl]-N-(2,2,2-trifluoroethyl)pyridine-3-carboxamide]	< 200 nM
CC(C)(Oc1cccc2cc[nH]c12)C(=O)N[C@H]1C[C@H]2CC[C@@H](C1)N2c1ccc(C(=O)NCC(F)(F)F)cn1 [Example 390, 6-(3-endo-{[2-(1H-indol-7-yloxy)-2-methylpropanoyl]amino}-8-azabicyclo[3.2.1]oct-8-yl)-N-(2,2,2-trifluoroethyl)pyridine-3-carboxamide]	< 200 nM
CC(C)(Oc1ccc(C(C)(C)O)cc1Cl)C(=O)N[C@H]1C[C@H]2CC[C@@H](C1)N2c1ccc(C(=O)NCC(F)(F)F)cn1 [Example 391, 6-[3-endo-({2-[2-chloro-4-(2-hydroxypropan-2-yl)phenoxy]-2-methylpropanoyl}amino)-8-azabicyclo[3.2.1]oct-8-yl]-N-(2,2,2-trifluoroethyl)pyridine-3-carboxamide]	< 200 nM
CC(C)(Oc1cc(OCCO)c(Cl)cc1Cl)C(=O)NC1CC2CCC(C1)N2c1ccc(C(=O)NC2CC2(F)F)cn1 (stereo not drawn) [Example 392, 6-[3-endo-({2-[2,4-dichloro-5-(2-hydroxyethoxy)phenoxy]-2-methylpropanoyl}amino)-8-azabicyclo[3.2.1]oct-8-yl]-N-(2,2-difluorocyclopropyl)pyridine-3-carboxamide]	< 200 nM
CC(C)(Oc1ccc(Cl)cc1C(F)F)C(=O)NC1CC2CCC(C1)N2c1ccc(C(=O)NC2CC2(F)F)cn1 (stereo not drawn) [Example 393, 6-[3-endo-({2-[4-chloro-2-(difluoromethyl)phenoxy]-2-methylpropanoyl}amino)-8-azabicyclo[3.2.1]oct-8-yl]-N-(2,2-difluorocyclopropyl)pyridine-3-carboxamide]	< 200 nM
CC(C)(Oc1ccc(Cl)cc1OC(F)(F)F)C(=O)NC1CC2CCC(C1)N2c1ccc(C(=O)NC2CC2(F)F)cn1 (stereo not drawn) [Example 394, 6-[3-endo-({2-[4-chloro-2-(trifluoromethoxy)phenoxy]-2-methylpropanoyl}amino)-8-azabicyclo[3.2.1]oct-8-yl]-N-(2,2-difluorocyclopropyl)pyridine-3-carboxamide]	< 200 nM
CC(C)(CO)NC(=O)c1ccc(N2[C@@H]3CC[C@H]2C[C@@H](NC(=O)C(C)(C)Oc2ccc(Cl)cc2Cl)C3)nc1 [Example 395, 6-(3-endo-{[2-(2,4-dichlorophenoxy)-2-methylpropanoyl]amino}-8-azabicyclo[3.2.1]oct-8-yl)-N-(1-hydroxy-2-methylpropan-2-yl)pyridine-3-carboxamide]	< 200 nM
CC(C)(O)CNC(=O)c1ccc(N2[C@@H]3CC[C@H]2C[C@@H](NC(=O)C(C)(C)Oc2ccc(Cl)cc2Cl)C3)nc1 [Example 396, 6-(3-endo-{[2-(2,4-dichlorophenoxy)-2-methylpropanoyl]amino}-8-azabicyclo[3.2.1]oct-8-yl)-n-(2-hydroxy-2-methylpropyl)pyridine-3-carboxamide]	< 200 nM
C[C@@H](CO)NC(=O)c1ccc(N2C3CCC2CC(NC(=O)C(C)(C)Oc2ccc(Cl)cc2Cl)C3)nc1 (stereo partly drawn) [Example 397, 6-(3-endo-{[2-(2,4-dichlorophenoxy)-2-methylpropanoyl]amino}-8-azabicyclo[3.2.1]oct-8-yl)-N-[(2S)-1-hydroxypropan-2-yl]pyridine-3-carboxamide]	< 200 nM
C[C@H](CO)NC(=O)c1ccc(N2C3CCC2CC(NC(=O)C(C)(C)Oc2ccc(Cl)cc2Cl)C3)nc1 (stereo partly drawn) [Example 398, 6-(3-endo-{[2-(2,4-dichlorophenoxy)-2-methylpropanoyl]amino}-8-azabicyclo[3.2.1]oct-8-yl)-N-[(2R)-1-hydroxypropan-2-yl]pyridine-3-carboxamide]	< 200 nM
CC(C)(Oc1ncc(Cl)cc1Cl)C(=O)NC1CC2CCC(C1)N2c1ccc(C(=O)NC2CC2(F)F)cn1 (stereo not drawn) [Example 399, 6-(3-endo-(2-(3,5-dichloropyridin-2-yloxy)-2-methylpropanamido)-8-azabicyclo[3.2.1]octan-8-yl)-N-(2,2-difluorocyclopropyl) nicotinamide]	< 200 nM
CC(C)NC(=O)c1ccc(N2[C@@H]3CC[C@H]2C[C@@H](NC(=O)C(C)(C)Oc2ncc(Cl)cc2Cl)C3)nc1 [Example 400, 6-(3-endo-(2-(3,5-dichloropyridin-2-yloxy)-2-methylpropanamido)-8-azabicyclo[3.2.1]octan-8-yl)-N-isopropylnicotinamide]	< 200 nM
CC(C)(Oc1ccc(Cl)cc1OC(F)(F)F)C(=O)N[C@H]1C[C@H]2CC[C@@H](C1)N2c1ccc(C(=O)NCC(F)F)cn1 [Example 401, 6-(3-endo-(2-(4-chloro-2-(trifluoromethoxy)phenoxy)-2-methylpropanamido)-8-azabicyclo[3.2.1]octan-8-yl)-N-(2,2-difluoroethyl)nicotinamide]	< 200 nM
CC(C)(Oc1cc(OCCO)c(Cl)cc1Cl)C(=O)N[C@H]1C[C@H]2CC[C@@H](C1)N2c1ccc(C(=O)NCC(F)F)cn1 [Example 402, 6-(3-endo-(2-(2,4-dichloro-5-(2-hydroxyethoxy)phenoxy)-2-methylpropanamido)-8-azabicyclo[3.2.1]octan-8-yl)-N-(2,2-difluoroethyl)nicotinamide]	< 200 nM
CC(C)(Oc1ccc(Cl)cc1C(F)F)C(=O)N[C@H]1C[C@H]2CC[C@@H](C1)N2c1ccc(C(=O)NC2(CO)CC2)cn1 [Example 403, 6-(3-endo-(2-(4-chloro-2-(difluoromethyl)phenoxy)-2-methylpropanamido)-8-azabicyclo[3.2.1]octan-8-yl)-N-(1-(hydroxymethyl)cyclopropyl) nicotinamide]	< 200 nM
CC(C)(Oc1ccc(Cl)cc1C(F)F)C(=O)N[C@H]1C[C@H]2CC[C@@H](C1)N2c1ccc(C(=O)Nc2ccon2)cn1 [Example 404, 6-(3-endo-(2-(4-chloro-2-(difluoromethyl)phenoxy)-2-methylpropanamido)-8-azabicyclo[3.2.1]octan-8-yl)-N-(isoxazol-3-yl)nicotinamide]	< 200 nM
CC(C)(Oc1cc(OCCN2CCCC2)c(Cl)cc1Cl)C(=O)N[C@H]1C[C@H]2CC[C@@H](C1)N2c1ccc(C(=O)NCC(F)(F)F)cn1 [Example 405, 6-(3-endo-(2-(2,4-dichloro-5-(2-(pyrrolidin-1-yl)ethoxy)phenoxy)-2-methylpropanamido)-8-azabicyclo[3.2.1]octan-8-yl)-N-(2,2,2-trifluoroethyl)nicotinamide]	< 200 nM
CN1CCN(CCOc2cc(OC(C)(C)C(=O)N[C@H]3C[C@H]4CC[C@@H](C3)N4c3ccc(C(=O)NCC(F)(F)F)cn3)c(Cl)cc2Cl)CC1 [Example 406, 6-(3-endo-(2-(2,4-dichloro-5-(2-(4-methylpiperazin-1-yl)ethoxy)phenoxy)-2-methylpropanamido)-8-azabicyclo[3.2.1]octan-8-yl)-N-(2,2,2-trifluoroethyl)nicotinamide]	< 200 nM
